By IC50 is commonly meant the concentration at which inhibition is half-maximal.

The test system of this assay is NCI-H295R. The experiment in a line: IC50 (antiproliferative, ATP content). Particulars: 48 h. In short, it runs like this: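 Adrenocortical carcinoma cells in 1536-well plates (1500 per well, serum-free DMEM plus ITS, overnight culture) were exposed for 48 h at 37 °C, 5% CO2 to pin-transferred compounds at 8 final concentrations ranging 0.6 nM to 46 µM. ATP content was then read as CellTiter-Glo luminescence and normalised to vehicle and positive-control wells. The IC50 came from logistic curve fits, and any compound lacking a concentration response was recorded as above the top dose.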
With `CN1C[C@@H](NS(=O)(=O)N(C)C)C[C@@H]2c3cccc4c3c(cn4C)C[C@H]21`, the IC50 is greater than 46 µM.
In turn, `Cc1c(O)c(=O)ccn1C` returned an IC50 greater than 46 µM.
`CCCCC(CC)CCC(CC(C)C)OS(=O)(=O)[O-].[Na+]` (centres undefined) returned an IC50 greater than 46 µM.
The value for `O=[C@]([O-])[C@@H]2N1C([C@@]([H])(N3C(C)(C)NC(C4=CC=CC=C4)C3=O)[C@]([H])1SC(C)2C)=O.[K+]` (some centres undefined) was greater than 46 µM; that for `CN[C@H]1C[C@@H](N)[C@H](O)[C@@H](O[C@@H]2O[C@H](CO)[C@H](O)[C@@H]3OC4(O[C@H]23)O[C@H]([C@H](N)CO)[C@H](O)[C@H](O)[C@H]4O)[C@@H]1O` (some centres undefined) was greater than 46 µM; that for `Cn1c(=O)c2c(ncn2C)n(C)c1=O.O=C(O)CC(O)(CC(=O)O)C(=O)O` was greater than 46 µM.
The molecule `CC(C)NCC(O)COc1cccc2[nH]ccc12` (centres undefined) had an IC50 greater than 46 µM.
Take `Nc1ncnc2c1ncn2[C@H]1CC[C@@H](CO)O1`: the IC50 is greater than 46 µM.
The molecule `CCCN1CCC[C@@H]2Cc3nc(N)ncc3C[C@H]21` came in with a half-inhibitory concentration (IC50) greater than 46 µM.
In the case of `CCCCC1C(=O)N(c2ccccc2)N(c2ccc(O)cc2)C1=O` (centres undefined), the IC50 was greater than 46 µM.
The value for `O=C(O)CCC(=O)c1ccc(-c2ccccc2)cc1` was greater than 46 µM; that for `O=[C@](O)[C@@]3(C)[C@@]1([H])[C@@](CCC3)(C)[C@]2([H])C(C=[C@@]([C@@H](C)C)CC2)=CC1` was greater than 46 µM; that for `CCNC(=O)/C=C/c1cccc(Br)c1` was greater than 46 µM.
The molecule `BrC=7Nc1cccc\6c1C=7C[C@@H]2C/6=C/[C@H](CN2C)C(=O)N[C@@]3(O[C@]5(O)N(C3=O)[C@@H](CC(C)C)C(=O)N4CCC[C@H]45)C(C)C` came in with an IC50 greater than 46 µM.
As to `CCOc1cc(OCC)c(C(=O)CCC(=O)O)cc1OCC`, the IC50 was greater than 46 µM.
The value for `CCOc1cc(-c2nccc3cc(OC)c(OC)cc23)cc(OCC)c1OCC` was greater than 46 µM; that for `Cc1ncc([N+](=O)[O-])n1CC(C)O` (centres undefined) was greater than 46 µM; that for `C[C@]12CC[C@@H]3c4ccc(O)cc4CC[C@H]3[C@@H]1C[C@@H](O)[C@H]2O` was greater than 46 µM.
`CC(C[N+](C)(C)C)OC(N)=O.[Cl-]` (centres undefined): the IC50 is greater than 46 µM.
The value for `NCCS(=O)(=O)O` was greater than 46 µM; that for `CC(C)(Oc1ccc(C2CC2(Cl)Cl)cc1)C(=O)O` (centres undefined) was greater than 46 µM; that for `COc1cccc([C@@]2(O)CCCC[C@@H]2CN(C)C)c1` was greater than 46 µM.
Consider `CCCCCCCCCCCCSCCOCCO`, for which the IC50 was greater than 46 µM.
Regarding `CC(=O)[C@@]3(O)CC[C@H]4[C@@H]5/C=C(/Cl)\C2=C\C(=O)[C@@H]1C[C@@H]1[C@]2(C)[C@H]5CC[C@]34C`, the IC50 is greater than 46 µM.
The molecule `Br.CC(N)Cc1ccc(O)cc1` (centres undefined) came in with an IC50 greater than 46 µM.
The molecule `OCCN(CCO)c1nc(N2CCCCC2)c2nc(N(CCO)CCO)nc(N3CCCCC3)c2n1` displayed an IC50 greater than 46 µM.
`C=C[C@H]1CN2CC[C@H]1C[C@@H]2[C@@H](O)c1ccnc2ccc(OC)cc12` yielded an IC50 greater than 46 µM.
`NCCCC(O)(P(=O)([O-])O)P(=O)(O)O.O.O.O.[Na+]` yielded a half-maximal inhibitory concentration (IC50) greater than 46 µM.
Molecule `CCCNC(=O)NS(=O)(=O)c1ccc(Cl)cc1` showed an IC50 greater than 46 µM.
Molecule `Nc1nc2c(ncn2COCCO)c(=O)[nH]1` showed an IC50 greater than 46 µM.
Turning to `NS(=O)(=O)c1cc(C(=O)O)c(NCc2ccco2)cc1Cl`, the IC50 was greater than 46 µM.
In turn, `OCc1ccccc1` yielded an IC50 greater than 46 µM.
As for `COC1=C(OC)C(=O)C(C/C=C(\C)CC/C=C(\C)CC/C=C(\C)CC/C=C(\C)CC/C=C(\C)CC/C=C(\C)CC/C=C(\C)CC/C=C(\C)CC/C=C(\C)CCC=C(C)C)=C(C)C1=O`, the 50% inhibitory concentration (IC50) was greater than 46 µM.
In turn, `O=C1CN=C(c2ccccc2)c2cc([N+](=O)[O-])ccc2N1` displayed an IC50 greater than 46 µM.
`CCOc1ccccc1OCCN[C@H](C)Cc1ccc(OC)c(S(N)(=O)=O)c1.Cl` showed an IC50 greater than 46 µM.
Molecule `O=C(CS(=O)Cc1ccco1)NC/C=C\COc1cc(CN2CCCCC2)ccn1` (centres undefined) showed an IC50 greater than 46 µM.
As to `COC(=O)N/N=C/c1c[n+]([O-])c2ccccc2[n+]1[O-]`, the IC50 is greater than 46 µM.
`C[N+]1(C)[C@@H]2CC[C@H]1C[C@@H](OC(=O)C(CO)c1ccccc1)C2.O=[N+]([O-])[O-]` (some centres undefined): the IC50 is greater than 46 µM.
The value for `COC(=O)c1cccnc1` was greater than 46 µM; that for `O=C(O)[C@H](O)c1ccccc1` was greater than 46 µM.
The molecule `CCN(Cc1ccc(Cl)nc1)/C(=C/[N+](=O)[O-])NC` had an IC50 greater than 46 µM.
As to `COc1cc2c(cc1OC)[C@@H](Cc1cc(OC)c(OC)c(OC)c1)[N+](C)(CCCOC(=O)CC/C=C/CCC(=O)OCCC[N+]1(C)CCc3cc(OC)c(OC)cc3[C@H]1Cc1cc(OC)c(OC)c(OC)c1)CC2.[Cl-].[Cl-]` (some centres undefined), the IC50 is greater than 46 µM.
On to `Cc1cc(C)c(NC(=O)CN(CC(=O)O)CC(=O)O)c(C)c1Br`, for which the IC50 was greater than 46 µM.
In turn, `CCN(CC)CCCC(C)Nc1ccnc2cc(Cl)ccc12.O=P(O)(O)O.O=P(O)(O)O` (centres undefined) registered an IC50 greater than 46 µM.
In turn, `O=C1OC2(c3cc(Br)c([O-])cc3Oc3c2cc(Br)c([O-])[c]3[Hg][OH])c2ccccc21.[Na+].[Na+]` (centres undefined) registered an IC50 greater than 46 µM.
Molecule `O=[N+]([O-])O[C@H]1CO[C@H]2[C@@H]1OC[C@H]2O[N+](=O)[O-]` came in with an IC50 greater than 46 µM.
Regarding `CC(=O)Oc1cccc(O)c1`, the IC50 is greater than 46 µM.
`COc1cc2c(cc1OC)CC(=O)N(CCCN(C)C[C@H]1Cc3cc(OC)c(OC)cc31)CC2.Cl`: the IC50 was greater than 46 µM.
`CC(=O)Oc1cccc(C(=O)O)c1OC(C)=O` displayed an IC50 greater than 46 µM.
Take `CC(C)(C)NCC(O)CSc1nc(-c2ccc(C(N)=O)s2)cs1.Cl` (centres undefined): the IC50 was greater than 46 µM.
Molecule `CC(=O)Oc1c(C)c(C)c2c(c1C)CCC(C)(CCCC(C)CCCC(C)CCCC(C)C)O2` (centres undefined) registered an IC50 greater than 46 µM.
In turn, `CN/C(=C\[N+](=O)[O-])NCCSCc1ccc(CN(C)C)o1` gave an IC50 greater than 46 µM.
Consider `CN(C)C/C=C(/c1ccc(Br)cc1)c1cccnc1.Cl.Cl.O`, for which the IC50 is greater than 46 µM.
In turn, `CCn1cc(C(=O)O)c(=O)c2cc(F)c(N3CCNCC3)nc21` returned an IC50 greater than 46 µM.
In turn, `CCC1=C(C)CN(C(=O)NCCc2ccc(S(=O)(=O)NC(=O)N[C@H]3CC[C@H](C)CC3)cc2)C1=O` yielded an IC50 greater than 46 µM.
The molecule `O=C(O)c1ccccc1-c1ccc(C(F)(F)F)cc1` registered an IC50 greater than 46 µM.
The value for `O=c1oc2c(O)c(O)cc3c(=O)oc4c(O)c(O)cc1c4c23` was greater than 46 µM.
In turn, `CC(Cc1ccccc1)(NC(=O)CN)c1ccccc1.Cl` (centres undefined) returned an IC50 greater than 46 µM.
With `O=C(NNCNNC(=O)c1ccncc1)c1ccncc1`, the 50% inhibitory concentration (IC50) is greater than 46 µM.
In the case of `CCOP(=S)(OCC)Oc1cc(C)nc(C(C)C)n1`, the IC50 was greater than 46 µM.
The value for `[C@@]153[C@@H](\C(O)=C(/C[C@@]1([C@H]2CC[C@]4([C@H]([C@@H]2CC3)CC[C@@H]4O)C)C)C#N)O5` was greater than 46 µM; that for `Cc1oncc1C(=O)Nc1ccc(C(F)(F)F)cc1` was greater than 46 µM; that for `O=C(O)[C@@H]1C[C@H](CP(=O)(O)O)CCN1` was greater than 46 µM.
Take `CCn1ccnc1CC1COc2ccccc2O1` (centres undefined): the IC50 was greater than 46 µM.
The same measure for `COc1c(O[C@@H]2O[C@H](CO)[C@@H](O)[C@H](O)[C@H]2O)cc2c(c1OC)-c1ccc(SC)c(=O)cc1[C@@H](NC(C)=O)CC2`: greater than 46 µM; for `CN(C)CCc1c[nH]c2ccc(C[C@H]3COC(=O)N3)cc12`: greater than 46 µM.
For `CC(C)CC(=O)N[C@H](C(=O)N[C@H](C(=O)N[C@@H](CC(C)C)[C@@H](O)CC(=O)N[C@@H](C)C(=O)N[C@@H](CC(C)C)[C@@H](O)CC(=O)O)C(C)C)C(C)C`, the IC50 is greater than 46 µM.
Molecule `CCOC(=O)Cc1ccc(-c2ccccc2)cc1` returned an IC50 greater than 46 µM.
The same measure for `C[C@]41/C=C\C(=O)\C=C4\C(=C)C[C@H]2[C@@H]3CCC(=O)[C@@]3(C)CC[C@H]12`: greater than 46 µM.
For the molecule `N#Cc1nn(-c2c(Cl)cc(C(F)(F)F)cc2Cl)c(N)c1S(=O)C(F)(F)F` (centres undefined), the IC50 was greater than 46 µM.
Molecule `O=C3N1/C(=C(/Cl)CS[C@@H]1[C@@H]3NC(=O)[C@H](N)c2ccccc2)C(O)=O` came in with an IC50 greater than 46 µM.
`CN(C)[C@@H]1C(O)=C(C(N)=O)C(=O)[C@@]2(O)C(O)=C3C(=O)c4c(O)ccc(Cl)c4[C@@](C)(O)[C@H]3C[C@@H]12.Cl` had an IC50 greater than 46 µM.
`CC[C@H](C)[C@H](NC(=O)[C@H](Cc1ccccc1)NC(=O)[C@H](C)NC(=O)[C@H](CC(=O)O)NC(=O)[C@H](CCCCN)NC(=O)[C@H](CO)NC(=O)[C@@H]1CCCN1C(=O)[C@@H]1CCC(=O)N1)C(=O)NCC(=O)N[C@@H](CC(C)C)C(=O)N[C@@H](CCSC)C(N)=O`: the IC50 was greater than 46 µM.
The value for `N[C@H](CO)C(=O)O` was greater than 46 µM; that for `N[C@H](CC(=O)O)C(=O)O` was greater than 46 µM.
`CN(C)C(=N)NC(=N)N.Cl` displayed an IC50 greater than 46 µM.
Turning to `OCC(O)CO`, the IC50 was greater than 46 µM.
In turn, `O=C(O)c1ccccc1Nc1cccc(C(F)(F)F)c1` gave an IC50 greater than 46 µM.
`CC=CC(=O)N(CC)c1ccccc1C` registered an IC50 greater than 46 µM.
In turn, `F[C@@]([C@](C[C@@H]5F)([H])[C@@](C4)([H])[C@@]2(C)[C@@]1([C@](COC(C)=O)=O)[C@]4([H])OC(C)(C)O1)([C@@H](O)C2)[C@](C=C3)(C)C5=CC3=O` registered an IC50 greater than 46 µM.
Molecule `CC1=CC[C@@H](CC1)[C@@](O)(C)CC\C=C(/C)C` yielded an IC50 greater than 46 µM.
In turn, `COc1cc(NS(=O)(=O)c2ccc(N)cc2)nc(OC)n1` came in with an IC50 greater than 46 µM.
In turn, `O=CC=O` registered an IC50 greater than 46 µM.
For the molecule `C[C@@H](CN1CC(=O)NC(=O)C1)N1CC(=O)NC(=O)C1`, the IC50 is greater than 46 µM.

The values are drawn from the supplement of paper PMC3493320.
